Assay results from PMC6219668 (Oncotarget, 2018).

Test system: panel of nearly 500 cancer cell lines
Assay: Cancer Cell Line Encyclopedia profiling, 3-day CellTiter-Glo
Type: cell-based
Design: Amax: unit not given here

CC(=O)c1c(C)c2cnc(Nc3ccc(N4CCNCC4)cn3)nc2n(C2CCCC2)c1=O [Palbociclib, reference compound]
EC50 (Homo sapiens, P3HR-1): > 8 µM
EC50 (Homo sapiens, P31-FUJ): > 8 µM
EC50 (Homo sapiens, PANC-03-27): > 8 µM
EC50 (Homo sapiens, PLC-PRF-5): 1.79 µM
EC50 (Homo sapiens, Panc 02.03): 1.14 µM
EC50 (Homo sapiens, Panc 04.03): > 8 µM
EC50 (Homo sapiens, Panc1005): > 8 µM
EC50 (Homo sapiens, Pfeiffer): 6.95 µM
EC50 (Homo sapiens, RL95-2): > 8 µM
EC50 (Homo sapiens, RT-112): 2.29 µM
EC50 (Homo sapiens, RVH-421): 0.689 µM
EC50 (Homo sapiens, Raji): > 8 µM
EC50 (Homo sapiens, SAOS-2): > 8 µM
EC50 (Homo sapiens, SBC-5): 1.11 µM
EC50 (Homo sapiens, SCC-25): 0.782 µM
EC50 (Homo sapiens, SCaBER): > 8 µM
EC50 (Homo sapiens, SF-126): > 8 µM
EC50 (Homo sapiens, SF-295): > 8 µM
EC50 (Homo sapiens, SHP77): > 8 µM
EC50 (Homo sapiens, SJRH30): > 8 µM
EC50 (Homo sapiens, SJSA-1): > 8 µM
EC50 (Homo sapiens, SK-BR-3): > 8 µM
EC50 (Homo sapiens, SK-CO-1): > 8 µM
EC50 (Homo sapiens, SK-ES1): 6.37 µM
EC50 (Homo sapiens, SK-HEP1): 0.516 µM
EC50 (Homo sapiens, SK-LU-1): > 8 µM
EC50 (Homo sapiens, SK-MEL-2): > 8 µM
EC50 (Homo sapiens, SK-MEL-5): > 8 µM
EC50 (Homo sapiens, SK-MEL-24): > 8 µM
EC50 (Homo sapiens, SK-MEL-30): > 8 µM
EC50 (Homo sapiens, SK-MM-2): 2.62 µM
EC50 (Homo sapiens, SK-N-AS): 1.11 µM
EC50 (Homo sapiens, SK-N-DZ): 2.73 µM
EC50 (Homo sapiens, SK-N-SH): 1.25 µM
EC50 (Homo sapiens, SK-OV-3): 2.22 µM
EC50 (Homo sapiens, SKNBE2): 4.99 µM
EC50 (Homo sapiens, SNU1): > 8 µM
EC50 (Homo sapiens, SNU-16): > 8 µM
EC50 (Homo sapiens, SNU-182): > 8 µM
EC50 (Homo sapiens, SNU-423): 2.01 µM
EC50 (Homo sapiens, SNU-449): > 8 µM
EC50 (Homo sapiens, SNU-C2B): > 8 µM
EC50 (Homo sapiens, SU-DHL10): 3.42 µM
EC50 (Homo sapiens, SU-DHL-8): 0.475 µM
EC50 (Homo sapiens, SU.86.86): > 8 µM
EC50 (Homo sapiens, SUP-T1): > 8 µM
EC50 (Homo sapiens, SW48): > 8 µM
EC50 (Homo sapiens, SW480): 1.24 µM
EC50 (Homo sapiens, SW780): 0.832 µM
EC50 (Homo sapiens, SW900): > 8 µM
EC50 (Homo sapiens, SW1353): > 8 µM
EC50 (Homo sapiens, SW1990): 5.78 µM
EC50 (Homo sapiens, SW-403): > 8 µM
EC50 (Homo sapiens, SW-620): 2.93 µM
EC50 (Homo sapiens, T47D): > 8 µM
EC50 (Homo sapiens, T98G): > 8 µM
EC50 (Homo sapiens, TCC-SUP): 2.08 µM
EC50 (Homo sapiens, TOV21G): > 8 µM
EC50 (Homo sapiens, TOV112D): 2.03 µM
EC50 (Homo sapiens, Toledo): > 8 µM
EC50 (Homo sapiens, U2OS): 3.62 µM
EC50 (Homo sapiens, U-87 MG): 2.01 µM
EC50 (Homo sapiens, U-118-MG): 0.523 µM
EC50 (Homo sapiens, U-937): > 8 µM
EC50 (Homo sapiens, UACC-812): > 8 µM
EC50 (Homo sapiens, UMUC3): > 8 µM
EC50 (Homo sapiens, YKG-1): 7.39 µM
EC50 (Homo sapiens, ZR-75-30): > 8 µM
EC50 (Hs766T): 1.52 µM
EC50 (IGR-39): > 8 µM
EC50 (JHH-2): > 8 µM
EC50 (JHH-4): > 8 µM
EC50 (JMSU-1): 1.32 µM
EC50 (KE-97): 2.26 µM
EC50 (KMRC-1): > 8 µM
EC50 (KMS-26): 1.33 µM
EC50 (LOU-NH91): > 8 µM
EC50 (LUDLU-1): 0.74 µM
EC50 (NCI-H322): > 8 µM
EC50 (NCI-H1568): 2.63 µM
EC50 (NCI-H1915): > 8 µM
EC50 (NCI-H2023): 1.12 µM
EC50 (NCI-H2172): > 8 µM
EC50 (OCUM1): 1.37 µM
EC50 (OE21): 4.75 µM
EC50 (ONCO-DG-1): > 8 µM
EC50 (PK-59): 1.51 µM
EC50 (PL45): > 8 µM
EC50 (SH-10-TC): > 8 µM
EC50 (SUIT-2): 1.18 µM
EC50 (SUP-M2): > 8 µM
EC50 (SW579): 1.3 µM
EC50 (SW1271): > 8 µM
EC50 (TC-71): > 8 µM
Amax (a172 (central_nervous_system)): 3.605
Amax (a204 (soft_tissue)): -34.4227
Amax (a253 (salivary_gland)): 3.868
Amax (a375 (skin)): -26.2658
Amax (a2058 (skin)): 2.616
Amax (a2780 (ovary)): -39.663
Amax (gb1 (central_nervous_system)): -42.437
Amax (gciy (stomach)): -7.059
Amax (gct (soft_tissue)): -52.5722
Amax (glc82 (lung)): -19.1977
Amax (gms10 (central_nervous_system)): -27.0424
Amax (h4 (central_nervous_system)): -32.9184
Amax (hcc15 (lung)): -12.0125
Amax (hcc56 (large_intestine)): -4.352
Amax (hcc70 (breast)): -11.029
Amax (hcc78 (lung)): -19.9044
Amax (hcc1187 (breast)): -9.361
Amax (hcc1569 (breast)): -39.1174
Amax (hcc1806 (breast)): 0.7921
Amax (hcc1954 (breast)): -54.5847
Amax (hcc2935 (lung)): -14.5087
Amax (hcc4006 (lung)): -19.6287
Amax (hct15 (large_intestine)): -2.41
Amax (hct116 (large_intestine)): 1.94
Amax (hec1a (endometrium)): -22.7551
Amax (hec1b (endometrium)): -58.5184
Amax (hec59 (endometrium)): -33.0687
Amax (hec151 (endometrium)): -3.536
Amax (hec251 (endometrium)): -0.6256
Amax (hec265 (endometrium)): 2.121
Amax (hel9217 (haematopoietic_and_lymphoid_tissue)): 11.0391
Amax (hep3b217 (liver)): 6.257
Amax (hepg2 (liver)): -38.1063
Amax (heya8 (ovary)): -39.168
Amax (hgc27 (stomach)): -60.1752
Amax (hh (haematopoietic_and_lymphoid_tissue)): -43.6309
Amax (hle (liver)): -2.411
Amax (hlf (liver)): 2.5318
Amax (hmc18 (breast)): -23.3461
Amax (hmcb (skin)): -32.1017
Amax (hos (bone)): -5.005
Amax (hpac (pancreas)): -39.6565
Amax (hs229t (lung)): -46.3597
Amax (hs294t (skin)): -3.363
Amax (hs578t (breast)): -24.7522
Amax (hs683 (central_nervous_system)): -14.5926
Amax (hs695t (skin)): -1.411
Amax (hs739t (breast)): -16.3381
Amax (hs746t (stomach)): -17.4326
Amax (hs766t (pancreas)): -19.984
Amax (hs840t (upper_aerodigestive_tract)): -48.5098
Amax (hs852t (skin)): -23.0246
Amax (hs895t (skin)): -52.8812
Amax (hs936t (skin)): -33.7794
Amax (hs939t (skin)): -41.6297
Amax (hs944t (skin)): -2.178
Amax (hsc2 (upper_aerodigestive_tract)): 2.874
Amax (ht29 (large_intestine)): -25.1424
Amax (ht144 (skin)): 4.385
Amax (ht1080 (soft_tissue)): 5.952
Amax (ht1197 (urinary_tract)): 6.185
Amax (ht1376 (urinary_tract)): 5.627
Amax (ht (haematopoietic_and_lymphoid_tissue)): 15.5049
Amax (hucct1 (biliary_tract)): -2.064
Amax (huh1 (liver)): -48.0113
Amax (hupt3 (pancreas)): -32.9102
Amax (hupt4 (pancreas)): -9.371
Amax (hut78 (haematopoietic_and_lymphoid_tissue)): -6.156
Amax (ialm (lung)): 2.617
Amax (igr37 (skin)): -4.699
Amax (igr39 (skin)): 3.52
Amax (igrov1 (ovary)): 1.295
Amax (imr32 (autonomic_ganglia)): -46.7636
Amax (ipc298 (skin)): -1.835
Amax (istmes1 (pleura)): -16.4542
Amax (istmes2 (pleura)): -52.8976
Amax (j82 (urinary_tract)): -1.0373
Amax (jhh2 (liver)): -0.7698
Amax (jhh4 (liver)): 0.2039
Amax (jhh6 (liver)): 2.0754
Amax (jhos2 (ovary)): 7.671
Amax (jhos4 (ovary)): 13.7773
Amax (jm1 (haematopoietic_and_lymphoid_tissue)): -48.4258
Amax (jmsu1 (urinary_tract)): -46.3166
Amax (k029ax (skin)): -20.9241
Amax (kals1 (central_nervous_system)): 3.749
Amax (karpas299 (haematopoietic_and_lymphoid_tissue)): -53.2153
Amax (karpas422 (haematopoietic_and_lymphoid_tissue)): 0.8347
Amax (ke39 (stomach)): -57.8035
Amax (ke97 (haematopoietic_and_lymphoid_tissue)): -62.2019
Amax (kg1 (haematopoietic_and_lymphoid_tissue)): 7.475
Amax (kle (endometrium)): -0.3583
Amax (kmbc2 (urinary_tract)): -20.7254
Amax (kmrc1 (kidney)): -29.7335
Amax (kms12bm (haematopoietic_and_lymphoid_tissue)): -27.7827
Amax (kms26 (haematopoietic_and_lymphoid_tissue)): -78.7112
Amax (kns42 (central_nervous_system)): -28.8816
